# Results taken from article PMC9974506 (Proceedings of the National Academy of Sciences of the …, 2023).
# Target: T1, BRTNaC1 (broad-range thermal receptor 1) (Scolopendra mutilans, UniProt A0ABF7PQ77)
# T1 sequence (A0ABF7PQ77 1-431): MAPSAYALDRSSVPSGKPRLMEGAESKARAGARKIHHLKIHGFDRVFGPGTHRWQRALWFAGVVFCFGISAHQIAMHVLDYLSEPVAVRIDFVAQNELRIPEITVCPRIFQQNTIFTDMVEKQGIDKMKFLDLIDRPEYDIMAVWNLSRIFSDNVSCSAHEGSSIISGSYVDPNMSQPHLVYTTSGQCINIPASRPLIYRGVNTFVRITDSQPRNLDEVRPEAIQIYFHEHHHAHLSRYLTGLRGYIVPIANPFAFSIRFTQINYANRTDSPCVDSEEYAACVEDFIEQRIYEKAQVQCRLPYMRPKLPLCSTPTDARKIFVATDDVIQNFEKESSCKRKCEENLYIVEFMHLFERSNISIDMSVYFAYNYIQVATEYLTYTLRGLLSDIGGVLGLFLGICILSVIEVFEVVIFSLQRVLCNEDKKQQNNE
# Assay: patch clamp, transfected HEK293 cells, heat-activated current, Hill fit
# Assay type: cell-based
structure (smiles),measurement,value
C[C@]12CC[C@H]3[C@@H](CCC4=CC(=O)CC[C@@]43C)[C@@H]1CC[C@@H]2O [testosterone],IC50,3.8 ± 1.1 µM
